Reference: ChEMBL document CHEMBL1146761, “Synthesis and biological activity of novel platinum(II) complexes of glutamate tethered to hydrophilic hematoporphyrin derivatives” (Bioorg Med Chem Lett, 2004)
pIC50: −log10 of the molar value.

Key:
Mus musculus [1] = test: In vivo antitumor activity of compound against leukemia L1210 cell line at 40 mg/kg; assay type: functional, organism-based; set-up: dose 40 mg/kg
Mus musculus [2] = test: In vivo antitumor activity of compound against leukemia L1210 cell line at 60/30 mg/kg; value expressed as 97/107; assay type: functional
L1210 = test: In vitro cytotoxicity activity of compound against leukemia L1210 cell line; assay type: functional, cell-based, Mus musculus
Mus musculus [3] = test: In vivo antitumor activity of compound against leukemia L1210 cell line at 4 mg/kg; assay type: functional, organism-based; set-up: dose 4 mg/kg
Mus musculus [4] = test: In vivo antitumor activity of compound against leukemia L1210 cell line at 60/30 mg/kg; value expressed as 102/106; assay type: functional

CARBOPLATIN [listing 1 of 2 here]
T/C (Mus musculus [1]): 168%

COCCOC(C)c1c(C)c2cc3[nH]c(cc4nc(cc5nc(cc1[nH]2)C(C)=C5CCC(=O)O)C(CCC(=O)O)=C4C)c(C)c3C(C)OCCOC (configuration not stated)
T/C (Mus musculus [2]): 107%
pIC50 (L1210; Mus musculus, L1210): 5.59

CISPLATIN
T/C (Mus musculus [3]): 184%

COCCOCCOCCOC(C)c1c(C)c2cc3[nH]c(cc4nc(cc5nc(cc1[nH]2)C(C)=C5CCC(=O)O)C(CCC(=O)O)=C4C)c(C)c3C(C)OCCOCCOCCOC (configuration not stated)
pIC50 (L1210; Mus musculus, L1210): 5.18
T/C (Mus musculus [4]): 106%

CARBOPLATIN [listing 2 of 2 here]
pIC50 (L1210; l1210): 5.00
